Values quoted from earlier work in US8470822B2, “Folate mimetics and folate-receptor binding conjugates thereof” (Purdue Research Foundation, priority 2001, dated 2013).

Test system: high-affinity folate receptor
Settings: 2 μM pteroic acid (100-fold excess); cited from earlier work

For Nc1nc2ncc(CNc3ccc(C(=O)O)cc3)nc2c(=O)[nH]1 [pteroic acid], the “effect on the binding of folate to the folate receptor” value is given as “absolutely no effect”.
